How the values were obtained:
[1] = tested on: Aβ injection model (Aβ 1-40 administered intracerebroventricularly); experiment: Morris water maze test in Aβ injection model, Test Example 1; type: in vivo, ddY mouse
Experimental: The therapeutic effect of olmesartan medoxomil in Aβ injection model and the dose dependency thereof were examined according to the following experimental schedule. [Experimental Schedule]: Prior to the experiment, 8-week old male ddY mice were administered olmesartan medoxomil (0.5 mg/kg/day, 1 mg/kg/day, 3 mg/kg/day or 6 mg/kg/day) or distilled water orally for four weeks (day −28 to −1). Then, Aβ 1-40 was administered to the mice intracerebroventricularly (day 0). (Although Aβ 1-40 was administered into one of the lateral ventricles in WO 2006/059777, Aβ 1-40 was administered in Test Example 1 to both lateral ventricles with an interval of one day between two administrations. Except for this point, Aβ 1-40 administration was performed in the same manner as in WO 2006/059777.) From one week thereafter, a behavioral test to evaluate cognitive function (Morris water maze test; Morris R et al., J Neuroscience Methods 1984, 11, 47-60) was performed (day 7 to 12). As a negative control, mice which had received oral administration of distilled water for four weeks were administered Aβ 40-1 intracerebroventricularly. The administration of olmesartan medoxomil or distilled water was continued until the end of the behavioral test. Measurements were performed as described below. • Hidden platform test: A platform is placed below the water surface of a water pool 150 cm in diameter filled with white water-colored. Mice are released into the water, and the time it takes them to reach the platform is measured. This trial is performed three times a day and for five consecutive days. As they learn, mice become able to reach the platform more quickly day by day. • Visible platform test: Mice are released into the water under such conditions that they can see the platform. The time it takes them to reach the platform is measured. • Probe test: The platform is removed, and mice are released and allowed to swim freely. Those mice with good learning/memory swim in the quadrant where the platform was located searching for the platform. The time they spent in that quadrant is measured. • Annnulus crossing: The number of times mice crossed the platform in the probe test is counted.

[2] = Blood pressure, Test Example 2 (hydralazine as hypotensive control); type: in vivo, ddY mouse; conditions: after 4-week oral administration (day −1); olmesartan medoxomil 1 mg/kg/day, hydralazine 30 mg/kg/day
Experimental: Further, assessment of blood pressure was performed by the tail-cuff method (using a sphygmomanometer wound around the mouse tail) (Bunag R D, J Lab Clin Med. 1971, 78, 957-62) immediately before the start of administration of olmesartan medoxomil or distilled water (day −30), immediately before (day −1) and immediately after (day 2) the Aβ intracerebroventricular administration, and after completion of the behavioral test (day 14) (see FIG. 1). […] The dose of olmesartan medoxomil was set at a low level of 1 mg/kg/day in view of the experimental results of Test Example 1. […] The number of successive interceptions by the subject of the two adjoining beams on each bank is counted as locomotion score. • Long-term retention: On day 12 after the completion of the hidden platform test as a water maze test, mice are released into the water and the time it takes them to reach the platform is measured. • Working memory task: The platform is transferred and fixed at a new place. Mice are given four consecutive trials at intervals of as short as 20 seconds, and the time it takes them to reach the platform is measured. […] In order to eliminate this influence, swimming speed is measured.

[3] = 0.5 mg/kg/day oral, versus Aβ 1-40 administration group
[4] = 1.0 mg/kg/day oral, versus Aβ 1-40 administration group

## CCCc1nc(C(C)(C)O)c(C(=O)OCc2oc(=O)oc2C)n1Cc1ccc(-c2ccccc2-c2nnn[nH]2)cc1 [olmesartan medoxomil, (5-methyl-2-oxo-1,3-dioxolen-4-yl)methyl 4-(1-hydroxy-1-methylethyl)-2-propyl-1-[4-[2-(tetrazol-5-yl)phenyl]phenyl]methyl-imidazole-5-carboxylate]
[1]; [3]
  hidden platform test: escape latency (impairment in spatial memory and learning ability): improved significantly
  probe test: time spent in the target quadrant: significantly improved
[1]; [4]
  hidden platform test: escape latency (impairment in spatial memory and learning ability): improved significantly
  number of annulus crossings: significantly improved
  probe test: time spent in the target quadrant: significantly improved
[1]; 3.0 mg/kg/day oral, versus Aβ 1-40 administration group
  hidden platform test: escape latency (impairment in spatial memory and learning ability): improved significantly
[1]; high dose groups (3-6 mg/kg/day)
  improvement of impairment in spatial memory and learning evoked by Aβ 1-40: not observed
[1]; low dose groups (0.5-1 mg/kg/day)
  improvement of impairment in spatial memory and learning evoked by Aβ 1-40: observed
[1]; oral administration for four weeks in advance of Aβ 1-40
  cognitive impairment (spatial memory and learning) in Morris water maze test, overall: significantly improved
[2]
  blood pressure compared to distilled water administration group: lowered significantly
